Source: patent publication US12383535B2, “Hydrogen peroxide-responsive KEAP1-NRF2 ppi inhibitor prodrug, and preparation method therefor” (CHINA PHARMACEUTICAL UNIVERSITY, priority 2019, dated 2025)

Legend:
[1] = pH stability in PBS buffers; assay type: physicochemical; details: PBS solutions, pH 4-10
Experimental: (1) pH stability. PBS buffers with different pH values (pH 4-10) were prepared from a 0.1 M HCl solution and a 0.1 M NaOH solution. The prodrug pro2 (20 μM) was incubated in triplicate together with the PBS buffers of different pH at 37° C. After 24 h of incubation, the solutions were filtered and injected for direct sample analysis by HPLC, and the peak areas were recorded to calculate the percentage of compound.

[2] = Drug release rate by HPLC (H2O2 activation of prodrug); assay type: physicochemical
Experimental: The target compound was dissolved in DMSO to give a 10 mM stock solution, which was then stored at −20° C. The final concentration was brought to 50 μM by adding the target compound (10 mM) to phosphate buffered saline (PBS) (10 mM, pH 7.4), and H2O2 was added. The solution was well vortexed, and then incubated at 37° C. Samples were taken at appropriate time intervals and analyzed by HPLC directly after injection, and the peak areas were recorded to calculate the percentage of the compound. The procedure was repeated three times. The following Agilent 1260 HPLC and DAD detectors were used: Agilent C18 column (4.6×150 mm, 3.5 μm); mobile phase: 70% methanol; flow rate: 0.5 mL/min. A standard curve of the compound was plotted against concentration.
After treatment with 10 mM H2O2, the prodrug pro2 was activated with prolonged incubation time and the active parent compound 2 was completely released within 3 h (HPLC-determined conversion >98%, (B) of FIG. 1 and (C) of FIG. 1).

[3] = Stability in liver microsomes (rat); assay type: in vitro ADME
Experimental: (§1) (3) Stability in microsomes. Isolated liver microsomes (from CD-1 male rats and human males) were used to evaluate the stability of the compound in microsomes in vitro. Ketanserin was used as a reference compound. A liver microsome solution (20 mg/mL) was added to a microcentrifuge tube containing PBS at 37° C. and the mixture was shaken for 10 min prior to assay. Then a DMSO solution (0.5 mM) containing the test compound was added. At 0 min, pre-cooled acetonitrile was added followed by an NADPH stock solution (6 mM). The plates were pre-incubated at 37° C. for 5 min. The timer started upon the addition of the NADPH stock solution (6 mM) to the plates. At 5 min, 15 min, 30 min and 45 min, pre-cooled acetonitrile was added to the wells of the respective plates to stop the reactions. After the reaction was quenched, the plates were shaken on a shaker for 10 min and then centrifuged at 5000 rpm for 15 min. The supernatant from each well was transferred to a 96-well sample plate containing ultrapure water for LC-MS/MS analysis.

[4] = Parallel artificial membrane permeability assay (PAMPA); assay type: in vitro ADME
Experimental: Potential solubility data were obtained with a pSOL model 3 instrument (pION INC, Cambridge, Massachusetts, USA). Cell membrane permeability was determined on a PAMPA Explorer instrument (pION).
Subsequently, the permeability of cell membranes was measured by standard parallel artificial membrane permeability assay (PAMPA).

[5] = tested on: Nrf2/ARE luciferase reporter in HepG2-ARE-C8 cells; assay: ARE-luciferase activity assay; assay type: cell-based; details: no LPS (physiological conditions)
Experimental: HepG2-ARE-C8 cells were plated in a 96-well plate at a density of 4×10^4 cells/well and incubated overnight. The cells were then incubated with different concentrations of the test compound, with DMSO as a negative control and a luciferase cell lysis agent as a blank control. After 12 h of treatment, the medium was removed and 100 μL of pre-cooled PBS was added to each well to wash the cells. PBS was then removed and 30 μL of the luciferase cell lysis agent was added. After 15 min of lysis on ice, the cells were harvested and centrifuged, and 20 μL of the supernatant was taken for luciferase activity assay according to the protocol provided by the manufacturer (Promega, Madison, WI). The luciferase activity was measured by Luminoskan Ascent (Thermo Scientific, USA). The assay was performed in triplicate and the inductivity fold was calculated by comparing with the control.

[6] = Stability in liver microsomes (human); assay type: in vitro ADME
Experimental: as §1

[7] = tested on: IL-1β and IL-6 protein in RAW264.7 cells; assay: Western blot of IL-1β and IL-6 protein levels; assay type: cell-based, mouse; details: same concentration
Experimental: Anti-Nrf2 (ab62352) and anti-IL-1β (ab45692) antibodies were purchased from Abcam Technology (England). Anti-HO-1 (SC-136960) and anti-NQO1 (SC-271116) antibodies were purchased from Santa Cruz Biotechnology (California, USA). Anti-β-Actin (60008-1-Ig) and anti-GCLM (14241-1-AP) antibodies were purchased from Proteintech Group (USA). Cell sampling and western blot were performed as previously reported (M.-C. Lu, J.-A. Ji, Y.-L. Jiang, Z.-Y. Chen, Z.-W. Yuan, Q.-D. You, Z.-Y. Jiang, An inhibitor of the Keap1-Nrf2 protein-protein interaction protects NCM460 colonic cells and alleviates experimental colitis, Sci. Rep., 6 (2016) 26585).

RAW264.7 cells = assay: Antioxidant capacity assays (SOD, GSH-Px, GSH/GSSG, MPO); assay type: cell-based, mouse
From the text: Subsequently, to investigate the effect of pro2 on antioxidant capacity in inflammatory conditions, the activities of superoxide dismutase (SOD) and glutathione peroxidase (GPx) were examined. […] In addition, the GSH/GSSG ratio and myeloperoxidase (MPO) activity were also examined, which are two important markers indicating oxidative stress.

Stability in plasma = assay type: in vitro ADME
Experimental: (2) Stability in plasma. Samples (20 μM) of the prodrug pro2 were co-incubated in triplicate with mouse plasma at 37° C. at different time periods. Methanol was added to precipitate the proteins, and the samples were vortexed and then centrifuged at 12,000 rpm for 5 min. The supernatants were analyzed by HPLC and the peak areas were recorded.

COc1ccc(S(=O)(=O)Nc2ccc(N(CC(=O)N3CCSC3=O)S(=O)(=O)c3ccc(OC)cc3)c3ccccc23)cc1 [pro2]
hydrolytic stability in PBS [1]: hydrolytically stable | time to complete release of the active parent compound 2 ([2]; 10 mM H2O2): ≤ 3 h | HPLC-determined conversion ([2]; 10 mM H2O2, within 3 h): > 98% | release of the active parent compound 2 ([2]; H2O2 0.8 mM, 24 h incubation, HPLC): no less than 50% | stability in co-incubation with rat liver microsomes [3]: very stable | Pe at pH 7.4 [4]: 6.35 10^−6 cm/s | Papp ([4]; pH 7.4, read-out: Pe at pH 7.4): 6.35 ×10⁻⁶ cm/s | ARE inductivity [5]: remained almost inactive even at the highest concentration | stability in co-incubation with human liver microsomes [6]: very stable | LPS-induced IL-1β and IL-6 protein expression [7]: almost completely inhibited | SOD and GSH-Px activity (RAW264.7 cells; LPS 20 ng/mL): restored the SOD and GSH-Px activity significantly | GSH/GSSG ratio and MPO activity (RAW264.7 cells; LPS exposure): return markers to near normal | stability in rat plasma (Stability in plasma): very stable
